Measurements published in ChEMBL document CHEMBL4052677, “A small-molecule screen identifies the antitrypanosomal agent suramin and analogues NF023 and NF449 as inhibitors of STAT5a/b” (Bioorg Med Chem Lett, 2017).
Active and inactive are the calls of the source. The calls are words filed in the database; no cut-off is given here.

Legend:
[1] = target: T1, Signal transducer and activator of transcription 1-alpha/beta (Homo sapiens, UniProt P42224); assay: Inhibition of 5-carboxyfluorescein-GpYDKPHVL-OH binding to STAT1 (unknown origin) pre-incubated for 1 hr before fluorescent-labelled peptide addition by fluorescence polarization assay
T1 sequence (P42224 whole entry): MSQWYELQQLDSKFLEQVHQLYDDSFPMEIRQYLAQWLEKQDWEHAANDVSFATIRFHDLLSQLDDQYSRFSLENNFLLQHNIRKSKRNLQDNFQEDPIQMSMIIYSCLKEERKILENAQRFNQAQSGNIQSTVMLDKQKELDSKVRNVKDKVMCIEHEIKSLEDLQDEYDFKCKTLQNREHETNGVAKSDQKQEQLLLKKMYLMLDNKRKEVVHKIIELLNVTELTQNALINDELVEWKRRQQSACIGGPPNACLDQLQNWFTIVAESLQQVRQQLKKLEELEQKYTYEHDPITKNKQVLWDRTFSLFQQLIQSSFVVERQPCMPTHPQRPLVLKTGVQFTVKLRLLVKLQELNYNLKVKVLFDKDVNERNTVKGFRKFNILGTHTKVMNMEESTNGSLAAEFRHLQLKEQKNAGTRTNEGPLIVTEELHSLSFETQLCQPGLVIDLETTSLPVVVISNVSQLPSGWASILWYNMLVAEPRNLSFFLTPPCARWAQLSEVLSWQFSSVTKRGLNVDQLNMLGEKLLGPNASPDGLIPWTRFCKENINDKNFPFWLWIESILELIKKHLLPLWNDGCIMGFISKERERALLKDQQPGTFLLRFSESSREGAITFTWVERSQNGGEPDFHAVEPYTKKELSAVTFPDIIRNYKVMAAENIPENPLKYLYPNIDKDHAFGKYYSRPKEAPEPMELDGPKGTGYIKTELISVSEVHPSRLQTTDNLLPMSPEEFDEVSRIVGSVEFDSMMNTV

[2] = target: T2, Signal transducer and activator of transcription 5B (Homo sapiens, UniProt P51692); assay: Inhibition of 5-carboxyfluorescein-GpYLVLDKW-OH binding to STAT5B SH2 domain (unknown origin) pre-incubated for 1 hr before fluorescent-labelled peptide addition by fluorescence polarization assay
T2 sequence (P51692 whole entry): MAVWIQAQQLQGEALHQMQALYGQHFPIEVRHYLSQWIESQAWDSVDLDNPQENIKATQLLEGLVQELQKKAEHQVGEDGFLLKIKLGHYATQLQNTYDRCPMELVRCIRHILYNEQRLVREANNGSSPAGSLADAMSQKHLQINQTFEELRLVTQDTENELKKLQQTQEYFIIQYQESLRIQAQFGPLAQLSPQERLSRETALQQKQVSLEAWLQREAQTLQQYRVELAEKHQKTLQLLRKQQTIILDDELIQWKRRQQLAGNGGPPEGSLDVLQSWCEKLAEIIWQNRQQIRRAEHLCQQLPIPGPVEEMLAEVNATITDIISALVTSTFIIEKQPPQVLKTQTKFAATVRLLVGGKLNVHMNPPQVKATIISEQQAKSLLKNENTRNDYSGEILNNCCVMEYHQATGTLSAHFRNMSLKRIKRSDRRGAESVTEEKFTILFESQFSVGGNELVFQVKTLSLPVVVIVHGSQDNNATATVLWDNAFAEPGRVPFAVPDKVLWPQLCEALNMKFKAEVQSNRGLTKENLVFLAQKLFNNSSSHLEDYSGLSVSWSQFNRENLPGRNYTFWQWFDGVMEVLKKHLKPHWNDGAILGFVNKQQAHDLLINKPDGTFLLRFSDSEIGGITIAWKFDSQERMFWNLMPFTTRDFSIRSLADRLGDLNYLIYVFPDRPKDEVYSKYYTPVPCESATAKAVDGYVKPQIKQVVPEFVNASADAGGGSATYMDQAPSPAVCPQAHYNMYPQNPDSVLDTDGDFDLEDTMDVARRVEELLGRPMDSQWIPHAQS

[3] = target: T3, Signal transducer and activator of transcription 5A (Homo sapiens) (UniProt P42229); assay: (§1) Inhibition of 5-carboxyfluorescein-GpYLVLDKW-OH binding to C-terminal 6x-His-tagged and an N-terminal maltose-binding protein-tagged STAT5A SH2 domain (137 to 507 residues) (unknown origin) expressed in Escherichia coli Rosetta BL21 DE3 at 50 uM pre-incubated for 1 hr before fluorescent-labelled peptide addition by fluorescence polarization assay
T3 sequence (whole entry): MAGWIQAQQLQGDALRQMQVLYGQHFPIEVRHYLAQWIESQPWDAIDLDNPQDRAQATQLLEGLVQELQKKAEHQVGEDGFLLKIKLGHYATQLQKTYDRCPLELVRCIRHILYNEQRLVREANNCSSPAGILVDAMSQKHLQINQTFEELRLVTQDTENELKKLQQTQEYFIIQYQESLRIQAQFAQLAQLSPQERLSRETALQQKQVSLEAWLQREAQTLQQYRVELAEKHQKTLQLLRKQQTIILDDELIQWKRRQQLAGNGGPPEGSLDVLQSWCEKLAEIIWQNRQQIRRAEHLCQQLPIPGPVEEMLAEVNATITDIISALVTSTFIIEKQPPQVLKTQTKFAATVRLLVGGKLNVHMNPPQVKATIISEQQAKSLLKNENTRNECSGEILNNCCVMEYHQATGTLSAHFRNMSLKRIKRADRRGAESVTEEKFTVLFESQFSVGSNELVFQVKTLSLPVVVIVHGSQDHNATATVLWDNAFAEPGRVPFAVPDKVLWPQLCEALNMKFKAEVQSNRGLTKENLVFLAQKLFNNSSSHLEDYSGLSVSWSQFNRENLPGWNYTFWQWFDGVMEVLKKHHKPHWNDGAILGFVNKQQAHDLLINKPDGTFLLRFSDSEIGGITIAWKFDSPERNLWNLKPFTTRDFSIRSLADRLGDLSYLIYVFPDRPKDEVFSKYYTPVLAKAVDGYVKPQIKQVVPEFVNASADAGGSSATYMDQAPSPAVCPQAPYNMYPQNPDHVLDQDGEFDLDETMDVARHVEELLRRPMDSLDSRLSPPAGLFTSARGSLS

[4] = target: Signal transducer and activator of transcription 3 (Mus musculus, UniProt P42227); assay: Inhibition of 5-carboxyfluorescein-GpYLPQTV-NH2 binding to mouse STAT3 (127 to 722 residues) expressed in Escherichia coli Rosetta BL21 DE3 pre-incubated for 1 hr before fluorescent-labelled peptide addition by fluorescence polarization assay
Chain of Signal transducer and activator of transcription 3 (P42227 whole entry, the tested form may be a part): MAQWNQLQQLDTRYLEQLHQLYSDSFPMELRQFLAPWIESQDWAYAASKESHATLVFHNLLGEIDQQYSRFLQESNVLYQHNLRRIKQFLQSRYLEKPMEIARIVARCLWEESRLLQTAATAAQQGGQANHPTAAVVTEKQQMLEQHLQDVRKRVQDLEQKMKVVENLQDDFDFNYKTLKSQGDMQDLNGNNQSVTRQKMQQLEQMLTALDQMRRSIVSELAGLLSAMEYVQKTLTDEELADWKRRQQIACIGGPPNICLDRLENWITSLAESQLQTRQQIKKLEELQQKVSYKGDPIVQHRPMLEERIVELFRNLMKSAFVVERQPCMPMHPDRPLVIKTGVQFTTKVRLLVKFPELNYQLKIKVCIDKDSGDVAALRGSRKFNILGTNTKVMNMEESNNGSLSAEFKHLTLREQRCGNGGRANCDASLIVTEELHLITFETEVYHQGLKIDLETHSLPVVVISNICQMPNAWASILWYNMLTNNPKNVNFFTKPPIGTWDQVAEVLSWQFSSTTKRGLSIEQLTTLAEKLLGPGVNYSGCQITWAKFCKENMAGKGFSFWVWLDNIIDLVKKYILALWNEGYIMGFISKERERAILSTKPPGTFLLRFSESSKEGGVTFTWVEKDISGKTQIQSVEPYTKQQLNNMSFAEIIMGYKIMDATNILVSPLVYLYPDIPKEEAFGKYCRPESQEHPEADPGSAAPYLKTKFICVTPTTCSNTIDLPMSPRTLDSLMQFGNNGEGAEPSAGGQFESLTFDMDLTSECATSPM

[5] = target: T4, Signal transducer and activator of transcription 5A (Homo sapiens, UniProt P42229); assay: as §1, with “DE3” for “DE3 at 50 uM”
T4 sequence (P42229 whole entry): T3 sequence (whole entry)

IC50 [1]	IC50 [2]	inhibition [3]	IC50 [4]	IC50 [5]	Structure (SMILES)
9.1 µM	10.4 µM	Active	> 100 µM	9.4 µM	Cc1ccc(C(=O)Nc2ccc(S(=O)(=O)O)c3cc(S(=O)(=O)O)cc(S(=O)(=O)O)c23)cc1NC(=O)c1cccc(NC(=O)Nc2cccc(C(=O)Nc3cc(C(=O)Nc4ccc(S(=O)(=O)O)c5cc(S(=O)(=O)O)cc(S(=O)(=O)O)c45)ccc3C)c2)c1 [SURAMIN HEXASODIUM]
33.2 µM	12.7 µM	Active	> 100 µM	8.8 µM	O=C(Nc1cccc(C(=O)Nc2ccc(S(=O)(=O)O)c3cc(S(=O)(=O)O)cc(S(=O)(=O)O)c23)c1)Nc1cccc(C(=O)Nc2ccc(S(=O)(=O)O)c3cc(S(=O)(=O)O)cc(S(=O)(=O)O)c23)c1
7.9 µM	2.5 µM	Active	> 100 µM	1.4 µM	O=C(Nc1cc(C(=O)Nc2ccc(S(=O)(=O)O)cc2S(=O)(=O)O)cc(C(=O)Nc2ccc(S(=O)(=O)O)cc2S(=O)(=O)O)c1)Nc1cc(C(=O)Nc2ccc(S(=O)(=O)O)cc2S(=O)(=O)O)cc(C(=O)Nc2ccc(S(=O)(=O)O)cc2S(=O)(=O)O)c1
